Measurements as given in patent US20100190105A1, “LITHOGRAPHIC PRINTING PLATE PRECURSOR” (Agfa Graphics NV, priority 2007, published 2010).

Assay: Absorption maximum of asymmetric sensitizers
Type: physicochemical
From the text: The asymmetric sensitizers AS-02, AS-03, AS-04 and AS-05 were obtained using a similar preparation method. The asymmetric sensitizers AS-01 to AS-05 are given in Table 2 together with their absorption maximum (Abs.Max (nm)) and their melting point (° C.).

Row | Structure (SMILES) | Abs. Max [nm]
1 | CCCCC(CC)COc1c(OC)cc(/C=C/c2ccc(/C=C/c3cc(OC)c(OC(C)CC)c(OC)c3)cc2)cc1OC (centres unmarked) [AS-01] | 371
2 | CCC(C)Oc1c(OC)cc(/C=C/c2ccc(/C=C/c3cc(OC)c(OC(CC)CC)c(OC)c3)cc2)cc1OC (centres unmarked) [AS-02] | 370
3 | CCC(C)Oc1c(OC)cc(/C=C/c2ccc(/C=C/c3cc(OC)c(OC4CCCCC4)c(OC)c3)cc2)cc1OC (centres unmarked) [AS-03] | 371
4 | CCC(C)Oc1c(OC)cc(/C=C/c2ccc(/C=C/c3cc(OC)c(OC4CCCC4)c(OC)c3)cc2)cc1OC (centres unmarked) [AS-04] | 371
5 | CCC(C)Oc1c(OC)cc(/C=C/c2ccc(/C=C/c3cc(OC)c(OCCO)c(OC)c3)cc2)cc1OC (centres unmarked) [AS-05] | 371
